Source: ChEMBL document CHEMBL1142186, “Multistep resistance selection and postantibiotic-effect studies of the antipneumococcal activity of LBM415 compared to other agents” (2007)
Values after ≈ are worked out from the molar mass of the structure shown.

Legend:
Format in all cases: functional
Streptococcus pneumoniae [1] = assay: Antibacterial activity against […] resistance selected Streptococcus pneumoniae 1076 with PDF D176N mutation after 39 passages by macrodilution method
Streptococcus pneumoniae [2] = assay: Antibacterial activity against clarithromycin resistance selected Streptococcus pneumoniae 3009 after 10 antibiotic-free subcultures by macrodilution method
Streptococcus pneumoniae [3] = assay: Antibacterial activity against moxifloxacin resistance selected Streptococcus pneumoniae 1076 with ParC S79Y mutation after 10 antibiotic-free subcultures by macrodilution method
Streptococcus pneumoniae [4] = assay: Antibacterial activity against Streptococcus pneumoniae 37 by macrodilution method
Streptococcus pneumoniae [5] = assay: Antibacterial activity against moxifloxacin resistance selected Streptococcus pneumoniae 3676 with GyrA E85G, GyrB S478I and ParC S79Y mutation after 10 antibiotic-free subcultures by macrodilution method
Streptococcus pneumoniae [6] = assay: Antibacterial activity against clarithromycin resistance selected Streptococcus pneumoniae 3676 after 10 antibiotic-free subcultures by macrodilution method
Streptococcus pneumoniae [7] = assay: Antibacterial activity against Streptococcus pneumoniae 3665 by macrodilution method
Streptococcus pneumoniae [8] = assay: Antibacterial activity against […] resistance selected Streptococcus pneumoniae 24 with PDF G139F mutation after 27 passages by macrodilution method
Streptococcus pneumoniae [9] = assay: Antibacterial activity against […] resistance selected Streptococcus pneumoniae 3413 after 10 antibiotic-free subcultures by macrodilution method
Streptococcus pneumoniae [10] = assay: Antibacterial activity against Streptococcus pneumoniae 1077 by macrodilution method
Streptococcus pneumoniae [11] = assay: Antibacterial activity against […] resistance selected Streptococcus pneumoniae 24 with PDF G139F mutation after 10 antibiotic-free subcultures by macrodilution method
Streptococcus pneumoniae [12] = assay: Antibacterial activity against Streptococcus pneumoniae 19 by macrodilution method
Streptococcus pneumoniae [13] = assay: Antibacterial activity against moxifloxacin resistance selected Streptococcus pneumoniae 3243 after 10 antibiotic-free subcultures by macrodilution method
Streptococcus pneumoniae [14] = assay: Antibacterial activity against gatifloxacin resistance selected Streptococcus pneumoniae 1076 with ParC S79Y mutation after 10 antibiotic-free subcultures by macrodilution method
Streptococcus pneumoniae [15] = assay: Antibacterial activity against clarithromycin resistance selected Streptococcus pneumoniae 3243 with 23S rRNA A2059T mutation after 10 antibiotic-free subcultures by macrodilution method
Streptococcus pneumoniae [16] = assay: Antibacterial activity against […] resistance selected Streptococcus pneumoniae 1076 with PDF D176N mutation after 10 antibiotic-free subcultures by macrodilution method
Streptococcus pneumoniae [17] = assay: Antibacterial activity against […] resistance selected Streptococcus pneumoniae 37 with PDF G69R, P76R mutation after 10 antibiotic-free subcultures by macrodilution method
Streptococcus pneumoniae [18] = assay: Antibacterial activity against […] resistance selected Streptococcus pneumoniae 3413 after 14 passages by macrodilution method
Streptococcus pneumoniae [19] = assay: Antibacterial activity against […] resistance selected Streptococcus pneumoniae 3676 with PDF R135C mutation after 10 antibiotic-free subcultures by macrodilution method
Streptococcus pneumoniae [20] = assay: Antibacterial activity against moxifloxacin resistance selected Streptococcus pneumoniae 3665 with GyrA S81Y mutation after 10 antibiotic-free subcultures by macrodilution method
Streptococcus pneumoniae [21] = assay: Antibacterial activity against […] resistance selected Streptococcus pneumoniae 1077 with PDF D176N mutation after 24 passages by macrodilution method
Streptococcus pneumoniae [22] = assay: Antibacterial activity against […] resistance selected Streptococcus pneumoniae 3009 with PDF G69V mutation after 10 antibiotic-free subcultures by macrodilution method
Streptococcus pneumoniae [23] = assay: Antibacterial activity against […] resistance selected Streptococcus pneumoniae 3243 with PDF G69C, Q172H mutation after 10 antibiotic-free subcultures by macrodilution method
Streptococcus pneumoniae [24] = assay: Antibacterial activity against gatifloxacin resistance selected Streptococcus pneumoniae 3009 after 10 antibiotic-free subcultures by macrodilution method
Streptococcus pneumoniae [25] = assay: Antibacterial activity against Streptococcus pneumoniae 2527 by macrodilution method
Streptococcus pneumoniae [26] = assay: Antibacterial activity against moxifloxacin resistance selected Streptococcus pneumoniae 19 with GyrA S81F mutation after 10 antibiotic-free subcultures by macrodilution method
Streptococcus pneumoniae [27] = assay: Antibacterial activity against […] resistance selected Streptococcus pneumoniae 3009 with PDF G69V mutation after 14 passages by macrodilution method
Streptococcus pneumoniae [28] = assay: Antibacterial activity against clarithromycin resistance selected Streptococcus pneumoniae 3665 after 10 antibiotic-free subcultures by macrodilution method
Streptococcus pneumoniae [29] = assay: Antibacterial activity against levofloxacin resistance selected Streptococcus pneumoniae 19 with GyrA S81Y and ParC D83Y mutation after 10 antibiotic-free subcultures by macrodilution method
Streptococcus pneumoniae [30] = assay: Antibacterial activity against […] resistance selected Streptococcus pneumoniae 3243 with PDF G69C, Q172H mutation after 20 passages by macrodilution method
Streptococcus pneumoniae [31] = assay: Antibacterial activity against […] resistance selected Streptococcus pneumoniae 19 with after 14 passages by macrodilution method
Streptococcus pneumoniae [32] = assay: Antibacterial activity against Streptococcus pneumoniae 3009 by macrodilution method
Streptococcus pneumoniae [33] = assay: Antibacterial activity against azithromycin resistance selected Streptococcus pneumoniae 3243 with L22 insertion 93SFRPRA94 mutation after 10 antibiotic-free subcultures by macrodilution method
Streptococcus pneumoniae [34] = assay: Antibacterial activity against […] resistance selected Streptococcus pneumoniae 3676 with PDF R135C mutation after 20 passages by macrodilution method
Streptococcus pneumoniae [35] = assay: Antibacterial activity against moxifloxacin resistance selected Streptococcus pneumoniae 3009 with GyrA S81F and ParC D83N mutation after 10 antibiotic-free subcultures by macrodilution method
Streptococcus pneumoniae [36] = assay: Antibacterial activity against […] resistance selected Streptococcus pneumoniae 3665 with after 27 passages by macrodilution method
Streptococcus pneumoniae [37] = assay: Antibacterial activity against gatifloxacin resistance selected Streptococcus pneumoniae 37 with GyrA S81Y, GyrB E474K and ParC S79Y mutation after 10 antibiotic-free subcultures by macrodilution method
Streptococcus pneumoniae [38] = assay: Antibacterial activity against levofloxacin resistance selected Streptococcus pneumoniae 3009 with GyrA S81Y and ParC S79Y mutation after 10 antibiotic-free subcultures by macrodilution method
Streptococcus pneumoniae [39] = assay: Antibacterial activity against […] resistance selected Streptococcus pneumoniae 3665 with after 10 antibiotic-free subcultures by macrodilution method
Streptococcus pneumoniae [40] = assay: Antibacterial activity against […] resistance selected Streptococcus pneumoniae 2527 after 10 antibiotic-free subcultures by macrodilution method
Streptococcus pneumoniae [41] = assay: Antibacterial activity against moxifloxacin resistance selected Streptococcus pneumoniae 24 with GyrA S81Y, GyrB P413S and ParC S79F mutation after 10 antibiotic-free subcultures by macrodilution method
Streptococcus pneumoniae [42] = assay: Antibacterial activity against […] resistance selected Streptococcus pneumoniae 37 with PDF G69R, P76R mutation after 50 passages by macrodilution method
Streptococcus pneumoniae [43] = assay: Antibacterial activity against azithromycin resistance selected Streptococcus pneumoniae 2527 after 10 antibiotic-free subcultures by macrodilution method
Streptococcus pneumoniae [44] = assay: Antibacterial activity against […] resistance selected Streptococcus pneumoniae 2527 after 27 passages by macrodilution method
Streptococcus pneumoniae [45] = assay: Antibacterial activity against Streptococcus pneumoniae 24 by macrodilution method
Streptococcus pneumoniae [46] = assay: Antibacterial activity against […] resistance selected Streptococcus pneumoniae 19 with after 10 antibiotic-free subcultures by macrodilution method
Streptococcus pneumoniae [47] = assay: Antibacterial activity against […] resistance selected Streptococcus pneumoniae 1077 with PDF D176N mutation after 10 antibiotic-free subcultures by macrodilution method
Streptococcus pneumoniae [48] = assay: Antibacterial activity against Streptococcus pneumoniae 3676 by macrodilution method
Streptococcus pneumoniae [49] = assay: Antibacterial activity against Streptococcus pneumoniae 1076 by macrodilution method
Streptococcus pneumoniae [50] = assay: Antibacterial activity against Streptococcus pneumoniae assessed as period of suppression of bacterial growth
Streptococcus pneumoniae [51] = assay: Antibacterial activity against Streptococcus pneumoniae 3243 by macrodilution method
Streptococcus pneumoniae [52] = assay: Antibacterial activity against Streptococcus pneumoniae 3413 by macrodilution method
Streptococcus pneumoniae [53] = assay: Antibacterial activity against azithromycin resistance selected Streptococcus pneumoniae 1077 with 23S rRNA A2058G mutation after 10 antibiotic-free subcultures by macrodilution method

CCCC[C@H](CN(O)C=O)C(=O)N1CCC[C@H]1C(=O)Nc1ccc(F)c[n+]1[O-]
MIC (Streptococcus pneumoniae [1]): 8 µg/mL (≈ 20.2 µM)
MIC (Streptococcus pneumoniae [2]): 1 µg/mL (≈ 2.52 µM)
MIC (Streptococcus pneumoniae [3]): 0.125 µg/mL (≈ 0.315 µM)
MIC (Streptococcus pneumoniae [4]): 1 µg/mL (≈ 2.52 µM)
MIC (Streptococcus pneumoniae [5]): 0.125 µg/mL (≈ 0.315 µM)
MIC (Streptococcus pneumoniae [6]): 0.125 µg/mL (≈ 0.315 µM)
MIC (Streptococcus pneumoniae [7]): 0.25 µg/mL (≈ 0.631 µM)
MIC (Streptococcus pneumoniae [8]): 4 µg/mL (≈ 10.1 µM)
MIC (Streptococcus pneumoniae [9]): 1 µg/mL (≈ 2.52 µM)
MIC (Streptococcus pneumoniae [10]): 0.5 µg/mL (≈ 1.26 µM)
MIC (Streptococcus pneumoniae [11]): 2 µg/mL (≈ 5.05 µM)
MIC (Streptococcus pneumoniae [12]): 0.25 µg/mL (≈ 0.631 µM)
MIC (Streptococcus pneumoniae [13]): 0.03 µg/mL (≈ 0.0757 µM)
MIC (Streptococcus pneumoniae [14]): 0.25 µg/mL (≈ 0.631 µM)
MIC (Streptococcus pneumoniae [15]): 0.5 µg/mL (≈ 1.26 µM)
MIC (Streptococcus pneumoniae [16]): 2 µg/mL (≈ 5.05 µM)
MIC (Streptococcus pneumoniae [17]): 2 µg/mL (≈ 5.05 µM)
MIC (Streptococcus pneumoniae [18]): 2 µg/mL (≈ 5.05 µM)
MIC (Streptococcus pneumoniae [19]): 2 µg/mL (≈ 5.05 µM)
MIC (Streptococcus pneumoniae [20]): 0.5 µg/mL (≈ 1.26 µM)
MIC (Streptococcus pneumoniae [21]): 8 µg/mL (≈ 20.2 µM)
MIC (Streptococcus pneumoniae [22]): > 16 µg/mL
MIC (Streptococcus pneumoniae [23]): 1 µg/mL (≈ 2.52 µM)
MIC (Streptococcus pneumoniae [24]): 2 µg/mL (≈ 5.05 µM)
MIC (Streptococcus pneumoniae [25]): 0.25 µg/mL (≈ 0.631 µM)
MIC (Streptococcus pneumoniae [26]): 0.5 µg/mL (≈ 1.26 µM)
MIC (Streptococcus pneumoniae [27]): > 16 µg/mL
MIC (Streptococcus pneumoniae [28]): 0.25 µg/mL (≈ 0.631 µM)
MIC (Streptococcus pneumoniae [29]): 1 µg/mL (≈ 2.52 µM)
MIC (Streptococcus pneumoniae [30]): 4 µg/mL (≈ 10.1 µM)
MIC (Streptococcus pneumoniae [31]): 4 µg/mL (≈ 10.1 µM)
MIC (Streptococcus pneumoniae [32]): 1 µg/mL (≈ 2.52 µM)
MIC (Streptococcus pneumoniae [33]): 0.5 µg/mL (≈ 1.26 µM)
MIC (Streptococcus pneumoniae [34]): 2 µg/mL (≈ 5.05 µM)
MIC (Streptococcus pneumoniae [35]): 0.5 µg/mL (≈ 1.26 µM)
MIC (Streptococcus pneumoniae [36]): 4 µg/mL (≈ 10.1 µM)
MIC (Streptococcus pneumoniae [37]): 2 µg/mL (≈ 5.05 µM)
MIC (Streptococcus pneumoniae [38]): 0.5 µg/mL (≈ 1.26 µM)
MIC (Streptococcus pneumoniae [39]): 1 µg/mL (≈ 2.52 µM)
MIC (Streptococcus pneumoniae [40]): 0.5 µg/mL (≈ 1.26 µM)
MIC (Streptococcus pneumoniae [41]): 0.125 µg/mL (≈ 0.315 µM)
MIC (Streptococcus pneumoniae [42]): 16 µg/mL (≈ 40.4 µM)
MIC (Streptococcus pneumoniae [43]): 0.5 µg/mL (≈ 1.26 µM)
MIC (Streptococcus pneumoniae [44]): 4 µg/mL (≈ 10.1 µM)
MIC (Streptococcus pneumoniae [45]): 0.5 µg/mL (≈ 1.26 µM)
MIC (Streptococcus pneumoniae [46]): 2 µg/mL (≈ 5.05 µM)
MIC (Streptococcus pneumoniae [47]): 4 µg/mL (≈ 10.1 µM)
MIC (Streptococcus pneumoniae [48]): 0.125 µg/mL (≈ 0.315 µM)
MIC (Streptococcus pneumoniae [49]): 0.25 µg/mL (≈ 0.631 µM)
Post Antibiotic Effe (Streptococcus pneumoniae [50]): 1 h
MIC (Streptococcus pneumoniae [51]): 0.5 µg/mL (≈ 1.26 µM)
MIC (Streptococcus pneumoniae [52]): 0.25 µg/mL (≈ 0.631 µM)
MIC (Streptococcus pneumoniae [53]): 0.25 µg/mL (≈ 0.631 µM)
